Reference: patent US11608313B2, “Adamantylmethylamine derivative and use thereof as pharmaceutical” (TOHOKU UNIVERSITY, priority 2017, dated 2023)

Tests used:
[1] = test system: Kir6.2 channel-overexpressing cells; test: Calcium imaging in Kir6.2 channel-overexpressing cells; type: cell-based
Description: The same Kir6.2 channel-overexpressing cells as used in Test Example 1 were used to measure, by calcium imaging, the levels of calcium entering the cells after TP-014 treatment. The calcium imaging is a method in which cultured nerve cells are treated with a culture medium supplemented with a calcium fluorescent dye (Fura2, produced by Dojindo Laboratories) to a concentration of 4 μM, and measured for the levels of calcium based on fluorescence intensity. The imaging was carried out using an imaging apparatus (LAMBDA 10-2, produced by Sutter Instrument) in accordance with the attached manual.

APP23 mice [2] = test: Fear conditioning test in APP23 mice; type: in vivo; details: treated for two months
Source text: The fear conditioning test is an analysis method that takes advantage of the characteristic preference of mice for a dark place over a bright place. On day 1, a mouse is placed in a bright place. The mouse, which prefers darkness, enters a dark place (dark box), but then electrical simulation is delivered to the mouse. The mouse is surprised, returns to the bright place, and never enters the dark place. On day 2, the mouse is placed again in the bright place (the same place as on day 1) and observed for 5 minutes to see whether the mouse enters a dark place. If the mouse immediately enters the dark place, it is determined that the mouse experiences a decline in fear memory. “Latency” refers to the number of seconds until the mouse placed in the bright place on day 2 enters a dark place.

APP23 mice [3] = test: Electrophysiological test of long-term potentiation (LTP) in hippocampal slices of APP23 mice; type: in vivo; details: APP23 mice chronically treated
[4] = test system: Kir6.2 channel-deficient mice; test: Behavioral tests and LTP evaluation in Kir6.2 channel-deficient mice; type: in vivo; details: Kir6.2-deficient mice, chronic treatment two months
Description: In order to confirm that TP-014 acts to inhibit Kir6.2 channels, Kir6.2 channel-deficient mice were analyzed by the same behavioral tests as in Test Example 4 (FIGS. 8-1 and 8-2: Y-maze test; FIG. 8-3: new object recognition test; FIG. 8-4: fear conditioning test; FIGS. 8-5 to FIG. 8-7: LTP improvement evaluation; n=5 per group) to identify the action site of TP-014. The results shown in FIGS. 8-1 to 8-7 confirmed that cognitive function impairment was induced in the Kir6.2-deficient mice. […] The analysis methods were the same as in Test Examples 4 to 7. Kir6.2-deficient mice were obtained from Professor Susumu Seino, School of Medicine of Kobe University (Miki T., et al., Proc. Natl. Acad. Sci. U.S.A. 1998, 95, 10402-10406).

CaMKII = CaMKII activation in hippocampus of Kir6.2-deficient mice (immunoblotting); type: in vivo; details: chronic treatment
Source text: By following the same procedure as in Test Examples 4 to 7, hippocampal slices were suspended in an SDS sample buffer and analyzed by immunoblotting for GluAl (Ser-831), which is known as a molecule that is activated by activation of CaMKII and CaMKIV, to thereby investigate the intracellular mechanism of cognitive function impairment in Kir6.2-deficient mice. The results are shown in FIGS. 9-1 and 9-2 (FIG. 9-1: band images obtained by immunoblotting; FIG. 9-2: results of quantification of the signal intensity of bands). In the hippocampus of the Kir6.2-deficient mice, increased CaMKII activation was seen and no effect was found of chronic treatment with TP-014.

amyloid-β (Aβ) = test: Aβ aggregation in brain slices of APP23 mice (6E10 and thioflavin staining); type: in vivo; details: APP23 mice 14 month-old, chronic oral treatment for 2 months, 1 mg/kg
Description: The amyloid-β (Aβ) hypothesis regarding the pathogenesis of Alzheimer's disease has still been of great importance. It has been confirmed by immunostaining that Aβ aggregation occurs in APP23 mice (14 month-old). 50 μm brain slices were prepared from each of WT (control) and APP23 mice, and stained with 6E10 (anti-Aβ antibody, produced by Abcam) and thioflavin. The other conditions were in line with conventional immunostaining methods. […] Aβ aggregation was suppressed by chronic treatment with TP-014 (chronic oral treatment for 2 months (1 mg/kg)).

CaMKIV-deficient mice = test: Tail-suspension test and forced swim test in CaMKIV-deficient mice; type: in vivo; details: chronic oral treatment for 2 weeks, 1 mg/kg
Description: By following the same procedure as in Test Example 12, CaMKIV-deficient mice (n=5*per group) were analyzed for CaMKIV induced by Kir6.1 channels.
The CaMKIV-deficient mice were obtained from professor Hiroyuki Sakagami, Kitasato University School of Medicine (Takao K., et al., PLoS One 2010, 5, e9460).

[5] = test system: Kir6.1-deficient mice treated with corticosterone; test: Anxiety-related behavioral tests in corticosterone-treated Kir6.1-deficient mice; type: in vivo; details: TP-014 treatment 2 weeks
Description: Wild-type mice (C57BL/6J, Japan SLC, two month-old) treated with corticosterone (at a dose of 5 mg/kg once a day for 2 weeks) and Kir6.1-deficient mice treated with corticosterone were used as disease models showing anxiety-like symptoms, to perform five behavioral tests regarding anxiety-related behaviors. The Kir6.1-deficient mice were obtained from Professor Susumu Seino, School of Medicine of Kobe University (Miki T., et al., Nature Medicine 2002, 8, 466-472).
The results of all the tests described above confirmed that chronic treatment with TP-014 (for 2 weeks) ameliorates exacerbated anxiety-like symptoms.

O=C(N[C@@H](c1ccccc1)[C@H]1[C@H]2C[C@@H]3C[C@](Cl)(C2)C[C@@]1(OC(=O)C(F)(F)F)C3)C(F)(F)F [TP-014, (1S,2R,3S,5S,7S)-5-chloro-2-((R)-phenyl(2,2,2-trifluoroacetamido)methyl)adamantan-1-yl 2,2,2-trifluoroacetate]
intracellular calcium levels ([1]; 1-100 nM, 4 minutes after treatment, Kir6.2 channel-overexpressing cells): significantly increased | potency to enhance calcium levels compared with memantine ([1]; TP-014 1-100 nM vs memantine 100 nM): more potent to enhance calcium levels than memantine | fear memory (latency, fear conditioning test) (APP23 mice [2]): improvement in fear memory | LTP (percent increase in the excitability of nerve cells) (APP23 mice [3]): improved | memory impairment and LTP attenuation [4]: not improved | CaMKII activation in hippocampus (CaMKII): no effect | Aβ aggregation (amyloid-β (Aβ)): suppressed | depression-like symptom (increased immobility time) (CaMKIV-deficient mice): no effect | anxiety-like symptoms [5]: no ameliorating effect was observed
